# Assay: Solubility in water (excess of compound in 4 ml demi water)
# Format: physicochemical
# Settings: Table E6, N-oxide compounds, in Salt form
# Method: Solubility is preferably solubility in aqueous solution, more preferably solubility in water, most preferably solubility in demineralised water. A skilled person knows how to assess such solubility.
# Solubility in water was determined by preparing mixtures of an excess of compound dispersed in 4 ml demi water using a vortex at maximum speed for 1 min. […] 1 ml of the mixture was concentrated in vacuo to yield a solid. The mass of the solid was determined in mg to calculate the solubility in percentage by dividing by ten.
row,SOLUBILITY (H2O),SMILES
1,11%,"CCCCCCCC[N+](C)([O-])C[C@H](O)[C@@H](O)[C@@H](O)CO (stereo partly drawn) [Compound 39, N-methyloctyl-L-arabinonamine oxide]"
2,17%,"CCCCCC[N+](C)([O-])C[C@H](O)[C@@H](O)[C@@H](O)[C@H](O)C(=O)O (stereo partly drawn) [Compound 41, N-methyl-N-hexyl-D-galacturonic acid amine oxide]"
3,10%,"CCCCCCCC[N+](C)([O-])C[C@H](O)[C@@H](O)[C@@H](O)[C@H](O)C(=O)O (stereo partly drawn) [Compound 42, N-methyl-N-octyl-D-galacturonic acid amine oxide]"
4,8%,CCCCCCCCCC[N+](C)([O-])C[C@H](O)[C@@H](O)[C@@H](O)[C@H](O)C(=O)O (some centres unmarked) [Compound 42b]
5,7%,"CCCCCCCCCCCC[N+](C)([O-])C[C@H](O)[C@@H](O)[C@@H](O)[C@H](O)C(=O)O (stereo partly drawn) [Compound 43, N-methyl-N-dodecyl-D-galacturonic acid amine oxide]"

# Same assay, conditions: Table E8
row,Solubility (%),SMILES
1,11%,"CCCCCCCC[N+](C)([O-])C[C@H](O)[C@@H](O)[C@@H](O)CO (stereo partly drawn) [Compound 39, N-methyloctyl-L-arabinonamine oxide]"
2,17%,"CCCCCC[N+](C)([O-])C[C@H](O)[C@@H](O)[C@@H](O)[C@H](O)C(=O)O (stereo partly drawn) [Compound 41, N-methyl-N-hexyl-D-galacturonic acid amine oxide]"
3,10%,"CCCCCCCC[N+](C)([O-])C[C@H](O)[C@@H](O)[C@@H](O)[C@H](O)C(=O)O (stereo partly drawn) [Compound 42, N-methyl-N-octyl-D-galacturonic acid amine oxide]"
4,8%,CCCCCCCCCC[N+](C)([O-])C[C@H](O)[C@@H](O)[C@@H](O)[C@H](O)C(=O)O (some centres unmarked) [Compound 42b]
5,7%,"CCCCCCCCCCCC[N+](C)([O-])C[C@H](O)[C@@H](O)[C@@H](O)[C@H](O)C(=O)O (stereo partly drawn) [Compound 43, N-methyl-N-dodecyl-D-galacturonic acid amine oxide]"

# Assay: Foaming abilities, 1% compound solutions shaken by hand
# Format: physicochemical
# Set-up: key to FOAM: −: no foam formation; +: low foam formation; ++: moderate foam formation; +++: strong foam formation
# Settings: Table E6, in Salt form
# Method: Foaming abilities were evaluated at room temperature by shaking 1% compound solutions (2 ml) of pH 3, 7, and 12 by hand for 10 s. The pH of each solution was assessed with a pH meter at room temperature. […] The foam heights at the initial time were compared to one another after which the foaming abilities were classified according to no foam formation (−), low foam formation (+), moderate foam formation (++), and strong foam formation (+++).
row,FOAM,SMILES
1,++,"CCCCCCCC[N+](C)([O-])C[C@H](O)[C@@H](O)[C@@H](O)CO (stereo partly drawn) [Compound 39, N-methyloctyl-L-arabinonamine oxide]"
2,−,"CCCCCC[N+](C)([O-])C[C@H](O)[C@@H](O)[C@@H](O)[C@H](O)C(=O)O (stereo partly drawn) [Compound 41, N-methyl-N-hexyl-D-galacturonic acid amine oxide]"
3,+++,"CCCCCCCC[N+](C)([O-])C[C@H](O)[C@@H](O)[C@@H](O)[C@H](O)C(=O)O (stereo partly drawn) [Compound 42, N-methyl-N-octyl-D-galacturonic acid amine oxide]"
4,+++,CCCCCCCCCC[N+](C)([O-])C[C@H](O)[C@@H](O)[C@@H](O)[C@H](O)C(=O)O (some centres unmarked) [Compound 42b]
5,+++,"CCCCCCCCCCCC[N+](C)([O-])C[C@H](O)[C@@H](O)[C@@H](O)[C@H](O)C(=O)O (stereo partly drawn) [Compound 43, N-methyl-N-dodecyl-D-galacturonic acid amine oxide]"

# Assay: Foaming power and stability, Ultra-Turrax, 0.4% aq. surfactant
# Format: physicochemical
# Settings: Table E8; after 1 min
# Method: Foaming power was also tested at room temperature with 5 mL of 0.4% aq. surfactant (20 mg) solution in a 50 mL measuring cylinder. After performing the Ultra-Turrax (a registered trademark for a high-performance dispersing instrument) for 20 seconds (8000 rpm), the initial height of the foam was measured for foam height. (volume in mL). Every time step of, 1, 3, 5, 10, 30, 60 minutes was noted. In addition, after 24 hours the stability was checked. Particularly, foaming power and stability of the surfactants were performed using an IKA Ultra-Turrax T25 with an 18 G dispersing element. At room temperature, an aqueous solution of 5 mL 0.4% surfactant in a 50 mL measuring cylinder (2.20 cm diameter) was mixed with the Ultra-Turrax for 20 seconds at 8000 rpm. The foam height (volume in mL) was denoted for 0, 1, 3, 5, 10, 30, 60 min and 24 hours. In addition, after 24 hours the stability was checked.
row,Foamability 1 min,SMILES
1,2 mL,"CCCCCCCC[N+](C)([O-])C[C@H](O)[C@@H](O)[C@@H](O)CO (stereo partly drawn) [Compound 39, N-methyloctyl-L-arabinonamine oxide]"
2,0.5 mL,"CCCCCC[N+](C)([O-])C[C@H](O)[C@@H](O)[C@@H](O)[C@H](O)C(=O)O (stereo partly drawn) [Compound 41, N-methyl-N-hexyl-D-galacturonic acid amine oxide]"
3,6 mL,"CCCCCCCC[N+](C)([O-])C[C@H](O)[C@@H](O)[C@@H](O)[C@H](O)C(=O)O (stereo partly drawn) [Compound 42, N-methyl-N-octyl-D-galacturonic acid amine oxide]"
4,6 mL,CCCCCCCCCC[N+](C)([O-])C[C@H](O)[C@@H](O)[C@@H](O)[C@H](O)C(=O)O (some centres unmarked) [Compound 42b]
5,5 mL,"CCCCCCCCCCCC[N+](C)([O-])C[C@H](O)[C@@H](O)[C@@H](O)[C@H](O)C(=O)O (stereo partly drawn) [Compound 43, N-methyl-N-dodecyl-D-galacturonic acid amine oxide]"

# Same assay, conditions: Table E8; after 5 min
row,Foamability 5 min,SMILES
1,2 mL,"CCCCCCCC[N+](C)([O-])C[C@H](O)[C@@H](O)[C@@H](O)CO (stereo partly drawn) [Compound 39, N-methyloctyl-L-arabinonamine oxide]"
2,0 mL,"CCCCCC[N+](C)([O-])C[C@H](O)[C@@H](O)[C@@H](O)[C@H](O)C(=O)O (stereo partly drawn) [Compound 41, N-methyl-N-hexyl-D-galacturonic acid amine oxide]"
3,6 mL,"CCCCCCCC[N+](C)([O-])C[C@H](O)[C@@H](O)[C@@H](O)[C@H](O)C(=O)O (stereo partly drawn) [Compound 42, N-methyl-N-octyl-D-galacturonic acid amine oxide]"
4,6 mL,CCCCCCCCCC[N+](C)([O-])C[C@H](O)[C@@H](O)[C@@H](O)[C@H](O)C(=O)O (some centres unmarked) [Compound 42b]
5,4 mL,"CCCCCCCCCCCC[N+](C)([O-])C[C@H](O)[C@@H](O)[C@@H](O)[C@H](O)C(=O)O (stereo partly drawn) [Compound 43, N-methyl-N-dodecyl-D-galacturonic acid amine oxide]"

# Same assay, conditions: Table E8; after 30 min
row,Foamability 30 min,SMILES
1,0.5 mL,"CCCCCCCC[N+](C)([O-])C[C@H](O)[C@@H](O)[C@@H](O)CO (stereo partly drawn) [Compound 39, N-methyloctyl-L-arabinonamine oxide]"
2,0 mL,"CCCCCC[N+](C)([O-])C[C@H](O)[C@@H](O)[C@@H](O)[C@H](O)C(=O)O (stereo partly drawn) [Compound 41, N-methyl-N-hexyl-D-galacturonic acid amine oxide]"
3,2 mL,"CCCCCCCC[N+](C)([O-])C[C@H](O)[C@@H](O)[C@@H](O)[C@H](O)C(=O)O (stereo partly drawn) [Compound 42, N-methyl-N-octyl-D-galacturonic acid amine oxide]"
4,5 mL,CCCCCCCCCC[N+](C)([O-])C[C@H](O)[C@@H](O)[C@@H](O)[C@H](O)C(=O)O (some centres unmarked) [Compound 42b]
5,4 mL,"CCCCCCCCCCCC[N+](C)([O-])C[C@H](O)[C@@H](O)[C@@H](O)[C@H](O)C(=O)O (stereo partly drawn) [Compound 43, N-methyl-N-dodecyl-D-galacturonic acid amine oxide]"

# Assay: Surface tension measurements, Wilhelmy plate (surface tension, CMC)
# Format: physicochemical
# Settings: Table E6, in Salt form
# Method: Surface tension measurements were performed with a Biolin Scientific Sigma701 automatic tension meter equipped with a Wilhelmy plate made of platinum (±0.5 mN/m). […] The number of experimental points is related to the compound's/surfactant's solubility and available quantity. All compound/surfactant solutions were allowed to stand 12 h before being measured. The platinum plate was thoroughly cleaned with demi water and flame-dried before each measurement. The CMC of each compound/surfactant was determined at the minimum of a breakpoint of a conventional plot of surface tension versus compound/surfactant concentration. DCMC was obtained by acquiring the surface tension at the CMC. The pC20 value was determined by taking the minus log of the concentration compound/surfactant at a surface tension of 52 mN/m.
CMC (%),SURFACE TENSION,SMILES
0.55%,27.734 mN/m,"CCCCCCCC[N+](C)([O-])C[C@H](O)[C@@H](O)[C@@H](O)CO (stereo partly drawn) [Compound 39, N-methyloctyl-L-arabinonamine oxide]"
2.58%,37.727 mN/m,"CCCCCC[N+](C)([O-])C[C@H](O)[C@@H](O)[C@@H](O)[C@H](O)C(=O)O (stereo partly drawn) [Compound 41, N-methyl-N-hexyl-D-galacturonic acid amine oxide]"
0.65%,42.89 mN/m,"CCCCCCCC[N+](C)([O-])C[C@H](O)[C@@H](O)[C@@H](O)[C@H](O)C(=O)O (stereo partly drawn) [Compound 42, N-methyl-N-octyl-D-galacturonic acid amine oxide]"
0.08%,25.17 mN/m,CCCCCCCCCC[N+](C)([O-])C[C@H](O)[C@@H](O)[C@@H](O)[C@H](O)C(=O)O (some centres unmarked) [Compound 42b]
0.058%,25.551 mN/m,"CCCCCCCCCCCC[N+](C)([O-])C[C@H](O)[C@@H](O)[C@@H](O)[C@H](O)C(=O)O (stereo partly drawn) [Compound 43, N-methyl-N-dodecyl-D-galacturonic acid amine oxide]"

# Same assay, conditions: Table E8
CMC (%),Surface tension (nM/m),SMILES
0.55%,27.73 mN/m,"CCCCCCCC[N+](C)([O-])C[C@H](O)[C@@H](O)[C@@H](O)CO (stereo partly drawn) [Compound 39, N-methyloctyl-L-arabinonamine oxide]"
2.60%,42.90 mN/m,"CCCCCC[N+](C)([O-])C[C@H](O)[C@@H](O)[C@@H](O)[C@H](O)C(=O)O (stereo partly drawn) [Compound 41, N-methyl-N-hexyl-D-galacturonic acid amine oxide]"
0.65%,42.89 mN/m,"CCCCCCCC[N+](C)([O-])C[C@H](O)[C@@H](O)[C@@H](O)[C@H](O)C(=O)O (stereo partly drawn) [Compound 42, N-methyl-N-octyl-D-galacturonic acid amine oxide]"
0.08%,25.17 mN/m,CCCCCCCCCC[N+](C)([O-])C[C@H](O)[C@@H](O)[C@@H](O)[C@H](O)C(=O)O (some centres unmarked) [Compound 42b]
0.058%,25.55 mN/m,"CCCCCCCCCCCC[N+](C)([O-])C[C@H](O)[C@@H](O)[C@@H](O)[C@H](O)C(=O)O (stereo partly drawn) [Compound 43, N-methyl-N-dodecyl-D-galacturonic acid amine oxide]"

# Source: patent publication US20260008801A1, “BIO-BASED SURFACTANTS DERIVED FROM CARBOHYDRATES” (COÖPERATIE KONINKLIJKE COSUN U.A., priority 2022, published 2026)
